The text below walks through data of US11737461B2, “Citrate perhydrates and uses thereof” (BIOREM ENGINEERING SA, priority 2018, dated 2023).

The test system of one data set is Botrytis cinerea. To be noted: samples at equivalent concentrations (0.2 M).
Data set [1] is described as follows: pH of an aqueous solution of the compound (pH meter). The following applies: for pH: sample solution of Table 13 (0.2 M H2O2 and/or citrate). Format: physicochemical.
For data set [2] the following is noted: other compound containing hydrogen peroxide, dissolved; cited from earlier work.

In the case of `O=C(O)CC(O)(CC(=O)O)C(=O)O` [Acide citrique, Citric acid], the “MIC Botrytis” value with Botrytis cinerea is “non actif”.
In turn, `O.O.O.O=C([O-])CC(O)(CC(=O)[O-])C(=O)O.O=C([O-])CC(O)(CC(=O)[O-])C(=O)O.[Na+].[Na+].[Na+].[Na+]` [Disodium citrate sesquihydrate] gave a pH in data set [1] of 4.9. Further, in the data set on Botrytis cinerea, the “MIC Botrytis” value is on record as “non actif”.
On to `OO` [Hydrogen peroxide], for which the pH in data set [1] amounted to 6.4. Further, in the data set on Botrytis cinerea, the “MIC Botrytis” value is listed as “non actif”.
Take `O=C([O-])[O-].O=C([O-])[O-].OO.OO.OO.[Na+].[Na+].[Na+].[Na+]` [sodium percarbonate]: in data set [2], the “pH obtained by dissolving” value is recorded as 11.
Regarding `O.O.O=C([O-])CC(O)(CC(=O)[O-])C(=O)[O-].OO.[Na+].[Na+].[Na+]` [trisodium citrate monoperhydrate dihydrate], the “pH of an aqueous solution” value in data set [1] (diluted 20× in water) was 7.6 (±0.3). The pH in data set [1] is given as 8.2. The “MIC Botrytis” value with Botrytis cinerea amounted to 72 mM.
With “anhydrous disodium citrate monoperhydrate [disodium citrate perhydrate]”, in the data set on Botrytis cinerea, the “MIC Botrytis” value is 108 mM.
